Test results reported in PubChem BioAssay AID248 (DTP/NCI, 2004).
Where “and” joins values, the source holds several entries; their conditions need not be identical. Equal entries are not always repeated. Toxic doses and inconclusive results are not listed. Rule as the data show it: active = T/C of 150% or more; inactive = T/C below 125%.

Test system: L1210 leukemia ip in BDF1 mice, survival T/C
Test: NCI In Vivo Anticancer Drug Screen. Data for tumor model L1210 Leukemia (intraperitoneal) in B6D2F1 (BDF1) mice
Conditions: endpoint: mean survival time, higher = longer survival
Outline: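 Survival endpoint. Drug-treated group vs vehicle group, expressed as T divided by C. Tumor passaged by transplantation.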

[1] = dose: 100.0 mg/kg/injection, schedule: Q01DX009 (ip), vehicle: Klucel (hydroxypropylcellulose) (HPC)
[2] = dose: 200.0 mg/kg/injection, schedule: Q01DX009 (ip), vehicle: Klucel (hydroxypropylcellulose) (HPC)
[3] = dose: 400.0 mg/kg/injection, schedule: Q04DX003 (ip), vehicle: Klucel (hydroxypropylcellulose) (HPC)
[4] = dose: 50.0 mg/kg/injection, schedule: Q01DX001 (ip), vehicle: saline
[5] = dose: 100.0 mg/kg/injection, schedule: Q01DX001 (ip), vehicle: saline
[6] = dose: 200.0 mg/kg/injection, schedule: Q01DX001 (ip), vehicle: saline
[7] = dose: 50.0 mg/kg/injection, schedule: Q01DX009 (ip), vehicle: saline
[8] = dose: 100.0 mg/kg/injection, schedule: Q01DX009 (ip), vehicle: saline
[9] = dose: 100.0 mg/kg/injection, schedule: Q04DX003 (ip), vehicle: saline
[10] = dose: 200.0 mg/kg/injection, schedule: Q01DX009 (ip), vehicle: saline
[11] = dose: 200.0 mg/kg/injection, schedule: Q04DX003 (ip), vehicle: saline
[12] = dose: 400.0 mg/kg/injection, schedule: Q04DX003 (ip), vehicle: saline
[13] = dose: 400.0 mg/kg/injection, schedule: Q01DX001 (ip), vehicle: saline

Measured: T/C

O=C(Nc1ncc([N+](=O)[O-])s1)c1ccc(Cl)s1
inactive: dose: 6.25 mg/kg/injection, schedule: Q04DX002 (ip), vehicle: Klucel (hydroxypropylcellulose) (HPC) 94 % of control | dose: 12.5 mg/kg/injection, schedule: Q04DX002 (ip), vehicle: Klucel (hydroxypropylcellulose) (HPC) 91 % of control | dose: 25.0 mg/kg/injection, schedule: Q04DX002 (ip), vehicle: Klucel (hydroxypropylcellulose) (HPC) 87 % of control

C[n+]1c(-c2ccccc2)c2cc(N)ccc2c2ccccc21
inactive: dose: 0.2 mg/kg/injection, schedule: Q01DX Z (ip), vehicle: methylcellulose (MC) 108 % of control | dose: 0.3 mg/kg/injection, schedule: Q01DX Z (ip), vehicle: methylcellulose (MC) 113 % of control | dose: 0.5 mg/kg/injection, schedule: Q01DX Z (ip), vehicle: methylcellulose (MC) 102 % of control and 114 % of control | dose: 0.75 mg/kg/injection, schedule: Q01DX Z (ip), vehicle: methylcellulose (MC) 111 % of control | dose: 1.0 mg/kg/injection, schedule: Q01DX Z (ip), vehicle: methylcellulose (MC) 107 % of control and 120 % of control | dose: 1.5 mg/kg/injection, schedule: Q01DX Z (ip), vehicle: methylcellulose (MC) 104 % of control | dose: 1.5 mg/kg/injection, schedule: Q01DX Z (ip), vehicle: saline 111 % of control | dose: 2.0 mg/kg/injection, schedule: Q01DX Z (ip), vehicle: carboxymethylcellulose (CMC) 106 % of control | dose: 2.0 mg/kg/injection, schedule: Q01DX Z (ip), vehicle: methylcellulose (MC) 110 % of control and 113 % of control | dose: 3.0 mg/kg/injection, schedule: Q01DX Z (ip), vehicle: carboxymethylcellulose (CMC) 112 % of control | dose: 3.0 mg/kg/injection, schedule: Q01DX Z (ip), vehicle: methylcellulose (MC) 117 % of control | dose: 3.0 mg/kg/injection, schedule: Q01DX Z (ip), vehicle: saline 117 % of control | dose: 4.0 mg/kg/injection, schedule: Q01DX Z (ip), vehicle: methylcellulose (MC) 121 % of control | dose: 4.4 mg/kg/injection, schedule: Q01DX Z (ip), vehicle: carboxymethylcellulose (CMC) 110 % of control | dose: 6.6 mg/kg/injection, schedule: Q01DX Z (ip), vehicle: carboxymethylcellulose (CMC) 120 % of control | dose: 8.0 mg/kg/injection, schedule: Q01DX Z (ip), vehicle: methylcellulose (MC) 121 % of control and 122 % of control | dose: 10.0 mg/kg/injection, schedule: Q01DX001 (ip), vehicle: saline 100 % of control | dose: 20.0 mg/kg/injection, schedule: Q01DX001 (ip), vehicle: saline 117 % of control | dose: 24.0 mg/kg/injection, schedule: Q01DX Z (ip), vehicle: saline 112 % of control | dose: 40.0 mg/kg/injection, schedule: Q01DX001 (ip), vehicle: saline 100 % of control

CN(C)C(=S)Sc1ccc([N+](=O)[O-])cc1[N+](=O)[O-]
inactive: dose: 100.0 mg/kg/injection, schedule: Q01DX001 (ip), vehicle: saline with Tween-80 96 % of control | [1] 91 % of control | dose: 200.0 mg/kg/injection, schedule: Q01DX001 (ip), vehicle: saline with Tween-80 100 % of control | [2] 93 % of control | dose: 400.0 mg/kg/injection, schedule: Q01DX001 (ip), vehicle: saline with Tween-80 100 % of control | [3] 86 % of control

CC(C)Cc1nc2c([nH]1)c(=O)n(C)c(=O)n2C
inactive: [4] 96 % of control | [5] 104 % of control | [6] 98 % of control

CC(C)(C)c1cccc(S(=O)(=O)Oc2ccccc2[N+](=O)[O-])c1
inactive: [1] 103 % of control | [2] 93 % of control | dose: 400.0 mg/kg/injection, schedule: Q01DX009 (ip), vehicle: Klucel (hydroxypropylcellulose) (HPC) 95 % of control

NC(N)=N/N=C(/C=N/N=C(N)N)C(O)C(O)CO (stereo not drawn)
inactive: dose: 15.0 mg/kg/injection, schedule: Q01DX Z (ip), vehicle: carboxymethylcellulose (CMC) 101 % of control | dose: 30.0 mg/kg/injection, schedule: Q01DX Z (ip), vehicle: carboxymethylcellulose (CMC) 98 % of control | [7] 98 % of control | dose: 60.0 mg/kg/injection, schedule: Q01DX Z (ip), vehicle: carboxymethylcellulose (CMC) 104 % of control | [8] 98 % of control | [9] 102 % of control | dose: 120.0 mg/kg/injection, schedule: Q01DX Z (ip), vehicle: carboxymethylcellulose (CMC) 101 % of control | [10] 95 % of control | [11] 94 % of control | [12] 100 % of control

C#CCOCCCC(=C)C
inactive: dose: 25.0 mg/kg/injection, schedule: Q01DX009 (ip), vehicle: saline 109 % of control | [7] 93 % of control

CN(C(=O)Cc1ccccc1)c1ccccc1[N+](=O)[O-]
inactive: [4] 98 % of control | [5] 104 % of control | [6] 95 % of control | [13] 101 % of control

Clc1cccc(NC(c2ccccc2)=[N+]2CCCCC2)c1
inactive: dose: 100.0 mg/kg/injection, schedule: Q04DX002 (ip), vehicle: Klucel (hydroxypropylcellulose) (HPC) 95 % of control | dose: 200.0 mg/kg/injection, schedule: Q04DX002 (ip), vehicle: Klucel (hydroxypropylcellulose) (HPC) 106 % of control | dose: 400.0 mg/kg/injection, schedule: Q04DX002 (ip), vehicle: Klucel (hydroxypropylcellulose) (HPC) 113 % of control

COC(=O)c1cncc(C(=O)OC)c1
inactive: dose: 100.0 mg/kg/injection, schedule: Q04DX003 (ip), vehicle: saline sonified 95 % of control | dose: 200.0 mg/kg/injection, schedule: Q04DX003 (ip), vehicle: saline sonified 104 % of control | dose: 400.0 mg/kg/injection, schedule: Q04DX003 (ip), vehicle: saline sonified 97 % of control

NC(=O)O/N=C/c1ccccn1
inactive: dose: 100.0 mg/kg/injection, schedule: Q04DX003 (ip), vehicle: saline with Tween-80 105 % of control | dose: 200.0 mg/kg/injection, schedule: Q04DX003 (ip), vehicle: saline with Tween-80 103 % of control | dose: 400.0 mg/kg/injection, schedule: Q04DX003 (ip), vehicle: saline with Tween-80 106 % of control

COC(=O)CCCc1c[nH]c2ccccc12
inactive: dose: 100.0 mg/kg/injection, schedule: Q01DX009 (ip), vehicle: other 93 % of control | dose: 200.0 mg/kg/injection, schedule: Q01DX009 (ip), vehicle: other 100 % of control | dose: 400.0 mg/kg/injection, schedule: Q01DX009 (ip), vehicle: other 90 % of control

CC(C)(C#N)NC(N)=O
inactive: [5] 101 % of control | [8] 103 % of control | [9] 107 % of control | [6] 102 % of control | [10] 102 % of control | [11] 104 % of control | [13] 98 % of control | dose: 400.0 mg/kg/injection, schedule: Q01DX009 (ip), vehicle: saline 97 % of control | [12] 102 % of control

CN(C)C(=S)Oc1ccc(Cl)cc1S(=O)(=O)F
inactive: dose: 100.0 mg/kg/injection, schedule: Q04DX003 (ip), vehicle: Klucel (hydroxypropylcellulose) (HPC) 106 % of control | dose: 200.0 mg/kg/injection, schedule: Q04DX003 (ip), vehicle: Klucel (hydroxypropylcellulose) (HPC) 101 % of control | [3] 102 % of control

O=C1C2CCN(CC2)C1C(c1ccccc1)c1ccccc1 (stereo not drawn)
inactive: [9] 96 % of control | [11] 102 % of control | [12] 100 % of control
